Measurements published in ChEMBL document CHEMBL4396960, “Optimization of 1,3-disubstituted urea-based inhibitors of Zika virus infection” (Bioorg Med Chem Lett, 2019).

Columns and labels:
Zika virus [1] = test: Antiviral activity against Zika virus infected in human A549 cells assessed as reduction in viral titer incubated for 48 hrs by plaque assay; format: functional, organism-based; details: A549, 48 h
A549 [2] = test: Cytotoxicity against human A549 cells assessed as reduction in cell viability at <= 1 uM by MTT assay; format: cell-based
A549 [3] = test: Cytotoxicity against human A549 cells assessed as reduction in cell viability at > antiviral IC50 by MTT assay; format: cell-based
Zika virus [4] = test: Potency index, ratio of ASN 07115873 to compound IC50 for Antiviral activity against Zika virus infected in human A549 cells; format: functional

## C=CCSc1nsc(NC(=O)Nc2ccc(Cl)cc2)n1
Zika virus [1]
  IC50: 0.191 nM
A549 [2]
  Activity: Non-Toxic
A549 [3]
  Activity: >= 50%

## C#CCSc1nsc(NC(=O)Nc2ccc(Cl)c(C(F)(F)F)c2)n1
Zika virus [1]
  IC50: 0.962 nM
A549 [2]
  Activity: Non-Toxic
A549 [3]
  Activity: >= 50%

## C=CCSc1nnc(NC(=S)Nc2ccc(Br)cc2)s1
Zika virus [1]
  IC50: 0.147 nM
A549 [2]
  Activity: Non-Toxic
A549 [3]
  Activity: >= 50%

## C=CCSc1nsc(NC(=S)Nc2ccc(Cl)c(C(F)(F)F)c2)n1
Zika virus [1]
  IC50: 4.9 nM
A549 [2]
  Activity: Non-Toxic
A549 [3]
  Activity: >= 50%

## C=CCSc1nsc(NC(=S)Nc2ccc(Cl)cc2)n1
Zika virus [1]
  IC50: 493 nM
A549 [2]
  Activity: Non-Toxic
A549 [3]
  Activity: >= 50%

## C#CCSc1nsc(NC(=O)Nc2ccc(I)cc2)n1
Zika virus [1]
  IC50: 0.809 nM
A549 [2]
  Activity: Non-Toxic
A549 [3]
  Activity: >= 50%

## C=CCSc1nc(NC(=S)Nc2ccc(Cl)cc2)ns1
Zika virus [1]
  IC50: 2600 nM
A549 [2]
  Activity: Non-Toxic
A549 [3]
  Activity: >= 50%

## C=CCSc1nsc(NC(=O)Nc2ccc(I)cc2)n1
Zika virus [1]
  IC50: 0.414 nM
A549 [2]
  Activity: Non-Toxic
A549 [3]
  Activity: >= 50%

## CCCSc1nnc(NC(=O)Nc2ccc(Cl)c(C(F)(F)F)c2)s1
Zika virus [1]
  IC50: 0.149 nM

## C=CCSc1nnc(NC(=O)Nc2ccc(Br)cc2C(F)(F)F)s1
Zika virus [1]
  IC50: 9100 nM

## C=CCSc1nnc(NC(=O)Nc2ccc(Br)cc2)s1
Zika virus [1]
  IC50: 0.144 nM
A549 [2]
  Activity: Non-Toxic
A549 [3]
  Activity: >= 50%

## C=CCSc1nc(NC(=S)Nc2ccc(Br)cc2)ns1
Zika virus [1]
  IC50: 4100 nM
A549 [2]
  Activity: Non-Toxic
A549 [3]
  Activity: >= 50%

## C=CCSc1nc(NC(=O)Nc2ccc(Cl)c(C(F)(F)F)c2)ns1
Zika virus [1]
  IC50: 1000 nM
A549 [2]
  Activity: Non-Toxic
A549 [3]
  Activity: >= 50%

## C=CCNc1nc(NC(=O)Nc2ccc(Cl)c(C(F)(F)F)c2)ns1
Zika virus [1]
  IC50: 0.114 nM
A549 [2]
  Activity: Non-Toxic
A549 [3]
  Activity: >= 50%

## C=CCSc1nsc(NC(=S)Nc2ccc(I)cc2)n1
Zika virus [1]
  IC50: 2600 nM
A549 [2]
  Activity: Non-Toxic
A549 [3]
  Activity: >= 50%

## C#CCSc1nsc(NC(=S)Nc2ccc(Cl)c(C(F)(F)F)c2)n1
Zika virus [1]
  IC50: 57.4 nM
A549 [2]
  Activity: Non-Toxic
A549 [3]
  Activity: >= 50%

## C=CCNc1nc(NC(=O)Nc2ccc(I)cc2)ns1
Zika virus [1]
  IC50: 0.1 nM
A549 [2]
  Activity: Non-Toxic
A549 [3]
  Activity: >= 50%

## C=CCSc1nc(NC(=O)Nc2ccc(Br)cc2)ns1
Zika virus [1]
  IC50: 1300 nM
A549 [2]
  Activity: Non-Toxic
A549 [3]
  Activity: >= 50%

## O=C(Nc1ccc(Cl)c(C(F)(F)F)c1)Nc1nnc(S)s1
Zika virus [1]
  IC50: 0.982 nM

## C=CCSc1nsc(NC(=O)Nc2ccc(Br)cc2)n1
Zika virus [1]
  IC50: 0.329 nM
A549 [2]
  Activity: Non-Toxic
A549 [3]
  Activity: >= 50%

## C=CCSc1nsc(NC(=S)Nc2ccc(Br)cc2)n1
Zika virus [1]
  IC50: 2100 nM
A549 [2]
  Activity: Non-Toxic
A549 [3]
  Activity: >= 50%

## C=CCNc1nc(NC(=O)Nc2ccc(Cl)cc2)ns1
Zika virus [1]
  IC50: 0.0851 nM
A549 [2]
  Activity: Non-Toxic
A549 [3]
  Activity: >= 50%
Zika virus [4]
  Ratio IC50: 2.2

## C#CCSc1nsc(NC(=O)Nc2ccc(Cl)cc2)n1
Zika virus [1]
  IC50: 1.4 nM
A549 [2]
  Activity: Non-Toxic
A549 [3]
  Activity: >= 50%

## C=CCSc1nnc(NC(=S)Nc2ccc(I)cc2)s1
Zika virus [1]
  IC50: 0.156 nM
A549 [2]
  Activity: Non-Toxic
A549 [3]
  Activity: >= 50%

## C=CCSc1nsc(NC(=O)Nc2ccc(Cl)c(C(F)(F)F)c2)n1
Zika virus [1]
  IC50: 0.423 nM
A549 [2]
  Activity: Non-Toxic
A549 [3]
  Activity: >= 50%

## C=CCSc1nnc(NC(=S)Nc2ccc(Br)cc2C(F)(F)F)s1
Zika virus [1]
  IC50: 46.6 nM

## C=CCSc1nc(NC(=S)Nc2ccc(Br)cc2C(F)(F)F)ns1
Zika virus [1]
  IC50: 2900 nM

## C=CCSc1nnc(NC(=O)Nc2ccc(I)cc2)s1
Zika virus [1]
  IC50: 0.179 nM
A549 [2]
  Activity: Non-Toxic
A549 [3]
  Activity: >= 50%

## C=CCSc1nnc(NC(=O)Nc2ccc(Cl)cc2)s1
Zika virus [1]
  IC50: 0.191 nM
A549 [2]
  Activity: Non-Toxic
A549 [3]
  Activity: >= 50%

## C#CCSc1nsc(NC(=O)Nc2ccc(Br)cc2)n1
Zika virus [1]
  IC50: 0.665 nM
A549 [2]
  Activity: Non-Toxic
A549 [3]
  Activity: >= 50%

## C=CCNc1nc(NC(=O)Nc2ccc(Br)cc2)ns1
Zika virus [1]
  IC50: 0.0977 nM
A549 [2]
  Activity: Non-Toxic
A549 [3]
  Activity: >= 50%

## C=CCSc1nnc(NC(=S)Nc2ccc(Cl)c(C(F)(F)F)c2)s1
Zika virus [1]
  IC50: 0.0977 nM
A549 [2]
  Activity: Non-Toxic
A549 [3]
  Activity: >= 50%

## C=CCSc1nc(NC(=S)Nc2ccc(I)cc2)ns1
Zika virus [1]
  IC50: 2700 nM
A549 [2]
  Activity: Non-Toxic
A549 [3]
  Activity: >= 50%

## C#CCSc1nsc(NC(=S)Nc2ccc(Br)cc2)n1
Zika virus [1]
  IC50: 706 nM
A549 [2]
  Activity: Non-Toxic
A549 [3]
  Activity: >= 50%

## C=CCSc1nc(NC(=S)Nc2ccc(Cl)c(C(F)(F)F)c2)ns1
Zika virus [1]
  IC50: 233 nM
A549 [2]
  Activity: Non-Toxic
A549 [3]
  Activity: >= 50%

## C=CCSc1nnc(NC(=O)Nc2ccc(Cl)c(C(F)(F)F)c2)s1
Zika virus [1]
  IC50: 0.111 nM
A549 [2]
  Activity: Non-Toxic
A549 [3]
  Activity: >= 50%

## C=CCSc1nc(NC(=O)Nc2ccc(I)cc2)ns1
Zika virus [1]
  IC50: 1200 nM
A549 [2]
  Activity: Non-Toxic
A549 [3]
  Activity: >= 50%
